What was measured:
[1] = Pharmacokinetics after intravenous and oral dosing in rats; conditions: rat, IV 0.1 mg/kg
[2] = test system: rat model of thymus involution; experiment: Rat model of thymus involution; format: in vivo; conditions: 3 daily IT doses of 100 μg
[3] = test system: ovalbumin sensitised Brown Norway rat eosinophilia model; experiment: Ovalbumin sensitised Brown Norway rat eosinophilia model; format: in vivo; conditions: single 30 μg intra-tracheal dose, suspension in saline, 30 min prior to ovalbumin challenge
Procedure: Pharmacological activity in vivo was assessed in an ovalbumin sensitised Brown Norway rat eosinophilia model. This model is designed to mimic allergen induced lung eosinophilia, a major component of lung inflammation in asthma.

[4] = Pharmacokinetics after intra-tracheal dry powder dosing in the pig; format: in vivo; conditions: for AUC (0-inf): compound (I) AUC calculated with IV plasma half-life
Procedure: Serial blood samples were taken for up to 8 h following dosing.

Compound: CCC(=O)O[C@]1(C(=O)SCF)[C@H](C)C[C@H]2[C@@H]3C[C@H](F)C4=CC(=O)C=C[C@]4(C)[C@@]3(F)[C@@H](O)C[C@@]21C [Fluticasone propionate, 6α, 9α-Difluoro-17α-(1-oxopropoxy)-11β-hydroxy-16α-methyl-3-oxo-androsta-1,4-diene-17β-carbothioic acid S-fluoromethyl ester, reference compound]
- plasma clearance [1]: 45.2 mL/min/kg
- reduction of thymus weight [2]: 78%
- inhibition of lung eosinophilia [3]: 41%
- Cmax ([4]; Pig 1, 1 mg intra-tracheal dry powder blend in lactose): 0.277 ng/mL
- AUC (0-inf) ([4]; Pig 1, 1 mg intra-tracheal dry powder): 0.455 ng·h/mL
- Cmax ([4]; Pig 2, 1 mg intra-tracheal dry powder blend in lactose): 0.218 ng/mL
- AUC (0-inf) ([4]; Pig 2, 1 mg intra-tracheal dry powder): 0.495 ng·h/mL
- time after dosing up to which quantifiable in plasma ([4]; anaesthetised pigs, 1 mg intra-tracheal, LLOQ 10 pg/mL compound (I), 20 pg/mL fluticasone propionate): up to 8 hours

From US20050130947A1, “Formulations for inhalation” (priority 2002, published 2005)
